# Measured values taken from patent publication US20240294550A1, “8-OXA-3-AZABICYCLO[3.2.1]OCTANE COMPOUNDS OR SALT THEREOF, AND PREPARATION METHOD AND USE THEREOF” (LITTDD MEDICINES LTD, priority 2021, published 2024).
# Counter-ions that a name gives are not always drawn.
# Columns and labels:
# ATR = ATR (Homo sapiens (Human), UniProt Q13535); assay: ATR kinase inhibition assay (HTRF); format: biochemical; conditions: p53 substrate, ATP 150 nM
# Procedure: This experiment adopted Homogeneous time-resolved fluorescence technology (HTRF®) of Cisbio Company for assay.
# Experiment method: buffers were prepared as follows:
# Preparation of solutions of the test compounds: The example compounds shown in the table below were prepared into solutions using DMSO as solvent, the stock solution typically being 10 mM. The maximum starting concentration in this experiment was 3 μM, DMSO 3-fold serial dilutions for concentrations, the serially diluted solution was added to each well of the corresponding 384-well plate (geriner bio-one, Cat #784075) to give final concentrations of 3000, 1000, 333, 111, 37, 12.3, 4.12, 1.37, 0.457, 0.152 nM, respectively, and the corresponding amount of DMSO was added to the additional wells to be used as negative or positive control wells, respectively.
# The enzyme and substrate were separately dissolved and diluted in two tubes with the buffer prepared above at the following concentrations:
# 5 μL of the ATR protein solution from tube A was added to the compound-containing wells and the negative control wells in the assay plates using an electric multichannel pipettor, and the same volume of the prepared buffer (medium only, no enzyme) was added to the positive control wells. The plates were centrifuged for one minute at 1000 rpm, and then placed in an incubator at 25° C. for 15 minutes. 5 μL of the substrate mix solution from tube B was added to the positive control well, negative control well and the compound-containing well of the assay plates in the same manner, centrifuged and incubated at 25° C. for 90 minutes.
# During the reaction, after ATR phosphorylated the substrate p53, two antibodies were added. Among them, anti-phospho-p53-Eu, as an energy donor, can specifically bind to the phosphorylation site of p53, while anti-GST-d2, as an energy receptor, can specifically bind to the GST-tagged p53. Upon excitation by a laser with certain wavelength (the excitation wavelength in this experiment is 340 nm), the energy donor can emit emission light of 615 nm, and when the energy donor and the energy receptor are close enough in space (that is, two antibodies are connected to p53 at the same time), energy transfer can occur between the energy donor and the energy receptor, so that the energy receptor can emit emission light of 665 nm. The two emission lights were detected by a plate reader, and the ratio of the signals at 665 nm and 615 nm was calculated. The IC50 of the samples tested can be obtained by plotting and calculation.
# 10 μL per well of the detection solution was added to the positive control, negative control and compound wells of the assay plate using an electric multichannel pipette, centrifuged and incubated overnight at 4° C., and read with the plate reader Envision 2104.
# Compound inhibition rate was calculated using interpolation. The mean values of the positive and negative controls were calculated respectively, and the following formula was used to calculate the inhibition rates of the compounds:
# Inhibition rate Minimum response+(Compound concentration ^Curve slope)*(Maximum response−Minimum response)/(Compound concentration^Curve slope+Half inhibition concentration ^Curve slope)
# The IC50 value of each compound to enzyme activity was obtained.
# LOVO cells = assay: Cell proliferation assay (CellTiter-Glo); format: cell-based; conditions: Homo sapiens, 96 hours
# Procedure: The cell proliferation inhibition effect of the compound of the invention was tested using CellTiter-Glo™ cell viability assay kit. This kit uses luciferase as the detector. During the luminescence process, the luciferase requires the participation of ATP. CellTiter-Glo™ reagent was added to the cell culture medium, and the luminescence value was measured. The light signal is proportional to the amount of ATP present in the system, and ATP positively correlates with the number of viable cells present, thus the cell proliferation activity is measured.
# Cell culture and seeding: LOVO cells in logarithmic growth phase (human colon carcinoma cells) (ATCC CCL-229) were harvested and counted using a platelet counter. Trypan blue exclusion method was used to detect the cell viability to ensure that the cell viability was above 90%. 90 μL of cell suspension (RPMI1640+10% fetal bovine serum) was added to a 96-well transparent flat-bottom black-wall plate (Thermo, 165305) respectively, and the cell concentration was adjusted to 3000/well/90 μl. Cells in the 96-well plate were incubated overnight at 37° C., 5% CO2 with 95% humidity (Thermo, Model 3100 Series).
# Firstly, DMSO was used as the solvent to prepare 10 mM mother solution of the test compounds, and then PBS was used to dilute 100 times to prepare a solution of 10 times of final concentration, the highest concentration was 100 μM. 10 μL solution of the test compounds was added to each well of the 96 well plate inoculated with cells, namely the solution was further diluted 10 times to reach the final concentration of 10 μM. Starting from 10 μM, the final concentration of the test compound was 3-fold serially diluted, with 9 concentrations in total with 3 triplicates for each concentration. The 96 well plates with the test compounds and cells were incubated at 37° C., 5% CO2 and 95% humidity for 96 hours, and then CellTiter Glo analysis was performed.
# CellTiter-Glo Reagents (CellTiter Glo R Luminescent Cell Viability Assay, Promega, G7572) were melted and the 96-well plates were equilibrated to room temperature for 30 minutes. An equal volume of CellTiter-Glo solution was added to each well, and the cells were lysed by shaking on the fixed orbit shaker for 5 minutes. The assay plates were left at room temperature for 20 minutes to stabilize the luminescence signal, and the luminescence signals were read using the SpectraMax multi-labeled microplate detector (MD, M3).
# Data were analyzed using GraphPad Prism 7.0 software, fitted with non-linear S-curve regression to derive the dose-response curves, and IC50 values were calculated therefrom.
# Cell survival rate (%)=(LumDrug to be tested−LumCulture medium control)/(LumCell control−LumCulture medium control)×100%
# Chain of ATR (Q13535 whole entry): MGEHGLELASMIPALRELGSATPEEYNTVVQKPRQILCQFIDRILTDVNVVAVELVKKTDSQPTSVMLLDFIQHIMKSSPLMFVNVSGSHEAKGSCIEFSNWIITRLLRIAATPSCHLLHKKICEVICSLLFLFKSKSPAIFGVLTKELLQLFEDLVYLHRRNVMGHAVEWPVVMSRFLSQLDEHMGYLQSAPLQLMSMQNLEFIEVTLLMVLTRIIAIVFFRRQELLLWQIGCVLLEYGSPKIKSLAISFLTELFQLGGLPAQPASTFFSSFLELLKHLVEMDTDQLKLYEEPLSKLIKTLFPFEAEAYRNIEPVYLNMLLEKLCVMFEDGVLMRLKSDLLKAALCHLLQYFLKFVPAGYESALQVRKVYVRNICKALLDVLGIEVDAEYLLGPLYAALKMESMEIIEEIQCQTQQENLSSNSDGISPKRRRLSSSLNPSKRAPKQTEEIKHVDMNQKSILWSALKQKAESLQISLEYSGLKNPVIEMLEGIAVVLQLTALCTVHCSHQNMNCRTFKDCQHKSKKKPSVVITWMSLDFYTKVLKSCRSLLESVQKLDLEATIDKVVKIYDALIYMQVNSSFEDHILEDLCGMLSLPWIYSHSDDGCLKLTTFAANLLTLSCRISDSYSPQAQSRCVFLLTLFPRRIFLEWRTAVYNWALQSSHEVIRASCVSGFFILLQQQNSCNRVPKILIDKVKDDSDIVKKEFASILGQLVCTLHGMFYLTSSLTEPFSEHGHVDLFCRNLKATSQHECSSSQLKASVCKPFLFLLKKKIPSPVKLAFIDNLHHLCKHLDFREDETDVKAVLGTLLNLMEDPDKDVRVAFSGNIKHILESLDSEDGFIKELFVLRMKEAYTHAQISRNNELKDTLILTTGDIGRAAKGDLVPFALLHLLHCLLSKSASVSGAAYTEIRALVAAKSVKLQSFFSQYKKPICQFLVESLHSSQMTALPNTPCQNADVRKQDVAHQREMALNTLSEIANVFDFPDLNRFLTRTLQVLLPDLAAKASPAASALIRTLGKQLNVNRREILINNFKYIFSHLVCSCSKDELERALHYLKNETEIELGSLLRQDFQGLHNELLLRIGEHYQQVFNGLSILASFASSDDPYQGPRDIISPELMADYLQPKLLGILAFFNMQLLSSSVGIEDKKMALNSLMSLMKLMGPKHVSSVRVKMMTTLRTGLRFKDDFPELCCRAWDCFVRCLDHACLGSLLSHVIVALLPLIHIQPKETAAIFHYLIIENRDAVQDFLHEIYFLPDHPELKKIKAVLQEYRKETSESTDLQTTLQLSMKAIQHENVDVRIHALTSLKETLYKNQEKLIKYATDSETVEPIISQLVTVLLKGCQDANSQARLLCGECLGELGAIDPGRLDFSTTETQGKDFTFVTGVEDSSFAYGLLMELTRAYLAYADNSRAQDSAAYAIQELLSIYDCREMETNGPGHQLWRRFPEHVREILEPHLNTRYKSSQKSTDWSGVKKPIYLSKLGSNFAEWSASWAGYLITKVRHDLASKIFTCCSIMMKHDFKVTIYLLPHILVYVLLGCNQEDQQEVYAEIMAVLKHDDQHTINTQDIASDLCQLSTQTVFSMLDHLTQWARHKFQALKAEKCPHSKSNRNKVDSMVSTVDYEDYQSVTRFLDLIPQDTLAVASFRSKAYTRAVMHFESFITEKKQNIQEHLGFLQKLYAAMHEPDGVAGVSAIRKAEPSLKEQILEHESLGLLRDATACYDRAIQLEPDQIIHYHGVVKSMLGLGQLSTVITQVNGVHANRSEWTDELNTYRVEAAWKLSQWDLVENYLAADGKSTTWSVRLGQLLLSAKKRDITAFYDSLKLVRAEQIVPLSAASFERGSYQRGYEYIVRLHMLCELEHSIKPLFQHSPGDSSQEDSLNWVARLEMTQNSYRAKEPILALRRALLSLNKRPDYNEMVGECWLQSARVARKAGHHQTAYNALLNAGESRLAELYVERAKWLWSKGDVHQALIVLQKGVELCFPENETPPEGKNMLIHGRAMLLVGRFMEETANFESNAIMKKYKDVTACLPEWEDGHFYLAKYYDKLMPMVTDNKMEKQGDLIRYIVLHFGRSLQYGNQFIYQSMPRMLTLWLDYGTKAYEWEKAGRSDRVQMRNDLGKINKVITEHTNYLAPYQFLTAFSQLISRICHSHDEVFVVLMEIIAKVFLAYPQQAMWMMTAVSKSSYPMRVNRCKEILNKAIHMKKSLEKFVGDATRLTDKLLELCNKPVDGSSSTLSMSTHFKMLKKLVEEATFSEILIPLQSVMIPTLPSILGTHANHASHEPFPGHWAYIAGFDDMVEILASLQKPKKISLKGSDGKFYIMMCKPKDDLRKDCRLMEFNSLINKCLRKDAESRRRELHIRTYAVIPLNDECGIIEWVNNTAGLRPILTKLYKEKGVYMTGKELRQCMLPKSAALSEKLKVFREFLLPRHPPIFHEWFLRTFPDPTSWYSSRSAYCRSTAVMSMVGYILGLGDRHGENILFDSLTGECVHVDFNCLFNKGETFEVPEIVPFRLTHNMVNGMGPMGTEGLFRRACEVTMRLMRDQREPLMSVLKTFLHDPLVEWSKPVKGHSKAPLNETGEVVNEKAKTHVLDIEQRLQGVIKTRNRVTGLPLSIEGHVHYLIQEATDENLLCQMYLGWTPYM
# Chain of ATR (Q8WXE1 whole entry partner): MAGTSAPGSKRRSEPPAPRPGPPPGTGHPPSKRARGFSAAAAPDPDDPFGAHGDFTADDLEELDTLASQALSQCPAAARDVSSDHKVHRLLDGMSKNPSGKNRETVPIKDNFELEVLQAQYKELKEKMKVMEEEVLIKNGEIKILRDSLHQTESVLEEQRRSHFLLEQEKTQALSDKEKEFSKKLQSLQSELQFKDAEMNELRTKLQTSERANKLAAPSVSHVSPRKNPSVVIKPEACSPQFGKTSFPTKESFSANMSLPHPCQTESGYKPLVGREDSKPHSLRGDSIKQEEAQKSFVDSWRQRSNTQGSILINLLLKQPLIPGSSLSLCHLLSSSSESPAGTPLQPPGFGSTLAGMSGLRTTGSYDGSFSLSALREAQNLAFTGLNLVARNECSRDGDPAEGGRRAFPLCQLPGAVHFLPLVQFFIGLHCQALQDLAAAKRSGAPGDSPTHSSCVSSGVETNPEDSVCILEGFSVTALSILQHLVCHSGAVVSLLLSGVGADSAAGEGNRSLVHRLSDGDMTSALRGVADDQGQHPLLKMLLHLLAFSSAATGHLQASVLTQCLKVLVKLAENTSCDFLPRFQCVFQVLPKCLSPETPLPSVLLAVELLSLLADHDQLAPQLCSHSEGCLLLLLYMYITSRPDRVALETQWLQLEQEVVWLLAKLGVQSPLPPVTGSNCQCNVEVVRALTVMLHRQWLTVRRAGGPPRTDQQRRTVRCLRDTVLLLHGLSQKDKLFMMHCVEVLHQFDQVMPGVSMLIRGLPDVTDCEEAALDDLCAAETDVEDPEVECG
Structure (SMILES),IC50 (ATR),IC50 (LOVO cells)
"CC1CN(c2cc(N3CC4CCC(C3)O4)nn3c(-c4cc[nH]n4)ncc23)CCO1 (stereo not drawn) [Example 18, 3-(4-(2-methylmorpholino)-7-(1H-pyrazol-3-yl)imidazo[1,5-b]pyridazin-2-yl)-8-oxa-3-azabicyclo[3.2.1]octane]",50.8 nM,–
"OCC1COCCN1c1cc(N2C[C@H]3CC[C@@H](C2)O3)nc2c1cnn2-c1cc[nH]n1 (stereo partly drawn) [Example 35, (4-(6-((1R,5S)-8-oxa-3-azabicyclo[3.2.1]octan-3-yl)-1-(1H-pyrazol-3-yl)-1H-pyrazolo[3,4-b]pyridin-4-yl)morpholin-3-yl)methanol]",15.3 nM,522 nM
"c1cc(-c2ncc3c(N4CCCCC4)cc(N4CC5CCC(C4)O5)nn23)n[nH]1 [Example 17, 3-(4-(piperidin-1-yl)-7-(1H-pyrazol-3-yl)imidazo[1,5-b]pyridazin-2-yl)-8-oxa-3-azabicyclo[3.2.1]octane]",32 nM,–
"c1cc(-n2ncc3c(N4CC5CCC(C4)O5)cc(N4CC5CCC(C4)O5)nc32)n[nH]1 [Example 12, 3-(6-(-8-oxa-3-azabicyclo[3.2.1]octan-3-yl)-1-(1H-pyrazol-3-yl)-1H-pyrazolo[3,4-b]pyridin-4-yl)-8-oxa-3-azabicyclo[3.2.1]octane]",16.9 nM,–
"C[C@@H]1CN(C)CCN1c1cc(N2CC3CCC(C2)O3)nn2c(-c3cc[nH]n3)ncc12 [Example 11, 3-(4-((R)-2,4-dimethylpiperazin-1-yl)-7-(1H-pyrazol-3-yl)imidazo[1,5-b]pyridazin-2-yl)-8-oxa-3-azabicyclo[3.2.1]octane formate]",22.4 nM,2640 nM
"Cn1nccc1-c1cc(N2CC3CCC(C2)O3)nn2c(-c3cc[nH]n3)cnc12 [Example 27, 3-(8-(1-methyl-1H-pyrazol-5-yl)-3-(1H-pyrazol-3-yl)imidazo[1,2-b]pyridazin-6-yl)-8-oxa-3-azabicyclo[3.2.1]octane]",149 nM,–
"C[C@@H]1CN(c2cc(N3CC4CCC(C3)O4)nn3c(-c4cc[nH]n4)ncc23)C[C@H](C)O1 [Example 16, 3-(4-(cis-2,6-dimethylmorpholino)-7-(1H-pyrazol-3-yl)imidazo[1,5-b]pyridazin-2-yl)-8-oxa-3-azabicyclo[3.2.1]octane]",21.9 nM,310 nM
"C[C@@H]1COCCN1c1cc(N2CC3CCC(C2)O3)nc2c(-c3cc[nH]n3)nn(C)c12 [Example 19, 3-(1-methyl-7-((R)-3-methylmorpholino)-3-(1H-pyrazol-3-yl)-1H-pyrazolo[4,3-b]pyridin-5-yl)-8-oxa-3-azabicyclo[3.2.1]octane]",–,620 nM
"c1cc(-c2ncc3c(N4C5CCC4COC5)cc(N4CC5CCC(C4)O5)nn23)n[nH]1 [Example 8, 8-(2-(8-oxa-3-azabicyclo[3.2.1]octan-3-yl)-7-(1H-pyrazol-3-yl)imidazo[1,5-b]pyridazin-4-yl)-3-oxa-8-azabicyclo[3.2.1]octane]",18.4 nM,243 nM
"CC(=O)N1CCN(c2cc(N3C[C@H]4CC[C@@H](C3)O4)nn3c(-c4cc[nH]n4)ncc23)[C@H](C)C1 [Example 29, 1-((R)-4-(2-((1R,5S)-8-oxa-3-azabicyclo[3.2.1]octan-3-yl)-7-(1H-pyrazol-3-yl)imidazo[1,5-b]pyridazin-4-yl)-3-methylpiperazin-1-yl)ethan-1-one]",4.5 nM,488 nM
"CC1(C)COCCN1c1cc(N2CC3CCC(C2)O3)nc2c(-c3ccn[nH]3)cnn12 [Example 36, 3-(7-(3,3-dimethylmorpholino)-3-(1H-pyrazol-5-yl)pyrazolo[1,5-a]pyrimidin-5-yl)-8-oxa-3-azabicyclo[3.2.1]octane]",6.2 nM,148 nM
"CC1CC(F)(F)CCN1c1cc(N2CC3CCC(C2)O3)nn2c(-c3cc[nH]n3)ncc12 (stereo not drawn) [Example 30, 3-(4-(4,4-difluoro-2-methylpiperidin-1-yl)-7-(1H-pyrazol-3-yl)imidazo[1,5-b]pyridazin-2-yl)-8-oxa-3-azabicyclo[3.2.1]octane]",5.2 nM,–

# Further compounds by falling IC50 (ATR), results first:
IC50 (ATR),IC50 (LOVO cells),Structure (SMILES)
145 nM,–,"c1cc(-c2ncc3c(N4CCNCC4)cc(N4CC5CCC(C4)O5)nn23)n[nH]1 [Example 10, 3-(4-(piperazin-1-yl)-7-(1H-pyrazol-3-yl)imidazo[1,5-b]pyridazin-2-yl)-8-oxa-3-azabicyclo[3.2.1]octane formate]"
85.5 nM,–,"OC1(c2cc(N3C[C@H]4CC[C@@H](C3)O4)nc3c(-c4ccn[nH]4)cnn23)CCOCC1 [Example 23, 4-(5-((1R,5S)-8-oxa-3-azabicyclo[3.2.1]octan-3-yl)-3-(1H-pyrazol-5-yl)pyrazolo[1,5-a]pyrimidin-7-yl)tetrahydro-2H-pyran-4-ol]"
40.3 nM,479 nM,"C[C@@H]1COCCN1c1cc(N2CC3CCC(C2)O3)nn2c(-c3cc[nH]n3)cnc12 [Example 2, 3-(8-((R)-3-methylmorpholino)-3-(1H-pyrazol-3-yl)imidazo[1,2-b]pyridazin-6-yl)-8-oxa-3-azabicyclo[3.2.1]octane]"
21.4 nM,–,"c1cc(-c2ncc3c(N4CCOCC4)cc(N4CC5CCC(C4)O5)nn23)n[nH]1 [Example 7, 3-(4-morpholino-7-(1H-pyrazol-3-yl)imidazo[1,5-b]pyridazin-2-yl)-8-oxa-3-azabicyclo[3.2.1]octane]"
20.3 nM,140 nM,"C[C@@H]1COCCN1c1c(Cl)c(N2CC3CCC(C2)O3)nn2c(-c3cc[nH]n3)ncc12 [Example 4, 3-(3-chloro-4-((R)-3-methylmorpholino)-7-(1H-pyrazol-3-yl)imidazo[1,5-b]pyridazin-2-yl)-8-oxa-3-azabicyclo[3.2.1]octane]"
18 nM,–,"Cn1nc(-c2cc[nH]n2)c2nc(N3CC4CCC(C3)O4)cc(N3CC4CCC(C3)O4)c21 [Example 13, 3-(7-(8-oxa-3-azabicyclo[3.2.1]octan-3-yl)-1-methyl-3-(1H-pyrazol-3-yl)-1H-pyrazolo[4,3-b]pyridin-5-yl)-8-oxa-3-azabicyclo[3.2.1]octane]"
7.6 nM,424 nM,"CC(=O)N1CCN(c2cc(N3C[C@H]4CC[C@@H](C3)O4)nc3c2cnn3-c2cc[nH]n2)[C@H](C)C1 [Example 34, 1-((R)-4-(6-((1R,5S)-8-oxa-3-azabicyclo[3.2.1]octan-3-yl)-1-(1H-pyrazol-3-yl)-1H-pyrazolo[3,4-b]pyridin-4-yl)-3-methylpiperazin-1-yl)ethan-1-one]"
5.6 nM,156 nM,"C[C@H]1CC(F)(F)CCN1c1cc(N2CC3CCC(C2)O3)nn2c(-c3cc[nH]n3)ncc12 [Example 32, 3-(4-((S)-4,4-difluoro-2-methylpiperidin-1-yl)-7-(1H-pyrazol-3-yl)imidazo[1,5-b]pyridazin-2-yl)-8-oxa-3-azabicyclo[3.2.1]octane]"
